Patent US8519149B2, “Tricyclic compounds as mPGES-1 inhibitors” (Glenmark Pharmaceuticals S.A., priority 2010, dated 2013)

Target: T1, Recombinant human mPGES-1 (Homo sapiens, UniProt O14684)
T1 sequence (O14684 1-152): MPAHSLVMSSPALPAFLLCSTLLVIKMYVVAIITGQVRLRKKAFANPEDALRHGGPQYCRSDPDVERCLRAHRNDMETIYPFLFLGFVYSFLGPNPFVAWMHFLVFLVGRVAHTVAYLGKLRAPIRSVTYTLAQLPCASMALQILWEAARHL
Assay: In-vitro mPGES-1 enzyme inhibition assay (PGE2 formation from PGH2, HTRF detection)
Assay type: biochemical
Conditions: for inhibition at 1 µM: 1 μM test compound, read-out: Percentage inhibition at 1 μM; for inhibition at 1 µM / inhibition at 10 µM: recombinant human mPGES-1 microsomal fraction; for inhibition at 10 µM: 10 μM test compound, read-out: Percentage inhibition at 10 μM; for IC50: class symbols, selected examples
Summary of the method: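 Crude microsomal fractions containing recombinant human mPGES-1 (40-60 μg/mL protein) convert PGH2 to PGE2 in the presence of reduced glutathione, with 0.5% final DMSO. Reaction stopped with stannous chloride, and PGE2 measured by anti-PGE2 antibody (HTRF) detection. IC50 by nonlinear regression of % inhibition versus uninhibited enzyme control.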

SMILES | inhibition at 1 µM | inhibition at 10 µM | IC50
CC1(C)Cc2c(c(C(=O)Nc3cccc(C(F)(F)F)c3)cc3nc(NCc4ccccc4Cl)[nH]c23)O1 [Example-144, 2-((2-Chlorobenzyl)amino)-7,7-dimethyl-N-(3-(trifluoromethyl)phenyl)-7,8-dihydro-1H-benzofuro[4,5-d]imidazole-5-carboxamide] | 37.3% | 46% | –
CC1(C)Cc2c(c(C(=O)Nc3cc(C(F)(F)F)ccc3F)cc3nc(NCc4ccccc4Cl)[nH]c23)O1 [Example-145, 2-((2-Chlorobenzyl)amino)-N-(2-fluoro-5-(trifluoromethyl)phenyl)-7,7-dimethyl-7,8-dihydro-1H-benzofuro[4,5-d]imidazole-5-carboxamide] | 59.5% | 60.4% | –
Cn1c(Nc2c(F)cccc2Cl)nc2cc(C(=O)Nc3ccc(C(F)(F)F)nc3)c3c(c21)CC(C)(C)O3 [Example-153, 2-((2-Chloro-6-fluorophenyl)amino)-1,7,7-trimethyl-N-(6-(trifluoromethyl)pyridin-3-yl)-7,8-dihydro-1H-benzofuro[4,5-d]imidazole-5-carboxamide] | 100% | 99.9% | < 50 nM
Cc1ccc(NC(=O)c2cc3nc(Nc4c(F)cccc4Cl)n(C)c3c3c2OC(C)(C)C3)c(F)c1 [Example-154, 2-((2-Chloro-6-fluorophenyl)amino)-N-(2-fluoro-4-methylphenyl)-1,7,7-trimethyl-7,8-dihydro-1H-benzofuro[4,5-d]imidazole-5-carboxamide] | 99.8% | 100% | < 50 nM
Cn1c(Nc2c(F)cccc2Cl)nc2cc(C(=O)Nc3ccc(C(F)(F)F)c[n+]3[O-])c3c(c21)CC(C)(C)O3 [Example-155, 2-(2-((2-Chloro-6-fluorophenyl)amino)-1,7,7-trimethyl-7,8-dihydro-1H-benzofuro[4,5-d]imidazole-5-carboxamido)-5-(trifluoromethyl)pyridine 1-oxide] | 87.9% | 99.8% | > 100 nM
CC(C)c1noc(-c2cc3nc(Nc4c(F)cccc4Cl)[nH]c3c3c2OC(C)(C)C3)n1 [Example-156, N-(2-Chloro-6-fluorophenyl)-5-(3-isopropyl-1,2,4-oxadiazol-5-yl)-7,7-dimethyl-7,8-dihydro-1H-benzofuro[4,5-d]imidazol-2-amine] | 33.1% | 92.2% | –
Cn1c(Nc2c(F)cccc2Cl)nc2cc(C(=O)Nc3ccc(C(F)(F)F)cn3)c3c(c21)CC(C)(C)O3 [Example-157, 2-((2-Chloro-6-fluorophenyl)amino)-1,7,7-trimethyl-N-(5-(trifluoromethyl)pyridin-2-yl)-7,8-dihydro-1H-benzofuro[4,5-d]imidazole-5-carboxamide] | 98.9% | 99.7% | < 50 nM
CC1(C)Cc2c(c(C(=O)Nc3ccc(C(F)(F)F)c[n+]3[O-])cc3nc(Nc4c(F)cccc4Cl)[nH]c23)O1 [Example-158, 2-(2-((2-Chloro-6-fluorophenyl)amino)-7,7-dimethyl-7,8-dihydro-1H-benzofuro[4,5-d]imidazole-5-carboxamido)-5-(trifluoromethyl)pyridine 1-oxide] | 77% | 97.4% | –
CC1(C)Cc2c(c(C(=O)Nc3cc(C4CC4)ccc3F)cc3nc(Nc4c(Cl)cccc4Cl)[nH]c23)O1 [Example-159, N-(5-Cyclopropyl-2-fluorophenyl)-2-((2,6-dichlorophenyl)amino)-7,7-dimethyl-7,8-dihydro-1H-benzofuro[4,5-d]imidazole-5-carboxamide] | 98.9% | 100% | < 50 nM
Cc1cccc(Cl)c1Nc1nc2cc(C(=O)Nc3ccc(C(F)(F)F)nc3)c3c(c2[nH]1)CC(C)(C)O3 [Example-160, 2-((2-Chloro-6-methylphenyl)amino)-7,7-dimethyl-N-(6-(trifluoromethyl)pyridin-3-yl)-7,8-dihydro-1H-benzofuro[4,5-d]imidazole-5-carboxamide] | 99.2% | 100% | 50 to 100 nM
CC1(C)Cc2c(c(-c3nc(-c4ccc(F)c(Cl)c4)no3)cc3nc(Nc4c(Cl)cccc4Cl)[nH]c23)O1 [Example-161, 5-(3-(3-Chloro-4-fluorophenyl)-1,2,4-oxadiazol-5-yl)-N-(2,6-dichlorophenyl)-7,7-dimethyl-7,8-dihydro-1H-benzofuro[4,5-d]imidazol-2-amine] | 79.2% | 88% | > 100 nM
COc1cc(OC)cc(-c2noc(-c3cc4nc(Nc5c(Cl)cccc5Cl)[nH]c4c4c3OC(C)(C)C4)n2)c1 [Example-162, N-(2,6-Dichlorophenyl)-5-(3-(3,5-dimethoxyphenyl)-1,2,4-oxadiazol-5-yl)-7,7-dimethyl-7,8-dihydro-1H-benzofuro[4,5-d]imidazol-2-amine] | 62.3% | 80.8% | –
Cc1cccc(Cl)c1Nc1nc2cc(C(=O)Nc3ccc(C(F)(F)F)c[n+]3[O-])c3c(c2[nH]1)CC(C)(C)O3 [Example-163, 2-(2-((2-Chloro-6-methylphenyl)amino)-7,7-dimethyl-7,8-dihydro-1H-benzofuro[4,5-d]imidazole-5-carboxamido)-5-(trifluoromethyl)pyridine 1-oxide] | 62.8% | 96.9% | –
Cc1cccc(Cl)c1Nc1nc2cc(C(=O)Nc3cccc(C(F)(F)F)c3F)c3c(c2[nH]1)CC(C)(C)O3 [Example-164, 2-((2-Chloro-6-methylphenyl)amino)-N-(2-fluoro-3-(trifluoromethyl)phenyl)-7,7-dimethyl-7,8-dihydro-1H-benzofuro[4,5-d]imidazole-5-carboxamide] | 93.5% | 94.5% | < 50 nM
CC1(C)Cc2c(c(C(=O)Nc3cccc(C4CC4)c3)cc3nc(Nc4c(F)cccc4Cl)[nH]c23)O1 [Example-165, 2-((2-Chloro-6-fluorophenyl)amino)-N-(3-cyclopropylphenyl)-7,7-dimethyl-7,8-dihydro-1H-benzofuro[4,5-d]imidazole-5-carboxamide] | 99.4% | 98.1% | < 50 nM
CC1(C)Cc2c(c(C(=O)Nc3ccc(C(F)(F)F)nc3)cc3nc(Nc4c(Cl)cccc4Cl)[nH]c23)O1 [Example-166, 2-((2,6-Dichlorophenyl)amino)-7,7-dimethyl-N-(6-(trifluoromethyl)pyridin-3-yl)-7,8-dihydro-1H-benzofuro[4,5-d]imidazole-5-carboxamide] | 97.7% | 99.6% | –
Cn1c(Nc2c(F)cccc2Cl)nc2cc(C(=O)Nc3ccc(C4CC4)cc3)c3c(c21)CC(C)(C)O3 [Example-167, 2-((2-Chloro-6-fluorophenyl)amino)-N-(4-cyclopropylphenyl)-1,7,7-trimethyl-7,8-dihydro-1H-benzofuro[4,5-d]imidazole-5-carboxamide] | 96.9% | 98.3% | < 50 nM
CC1(C)Cc2c(c(C(=O)Nc3cccc(C(F)(F)F)c3F)cc3nc(Nc4c(F)cccc4Cl)[nH]c23)O1 [Example-168, 2-((2-Chloro-6-fluorophenyl)amino)-N-(2-fluoro-3-(trifluoromethyl)phenyl)-7,7-dimethyl-7,8-dihydro-1H-benzofuro[4,5-d]imidazole-5-carboxamide] | 92.5% | 97.7% | < 50 nM
Cc1nc2c(o1)c(C(=O)Nc1ccc(F)cc1)cc1nc(Nc3c(Cl)cccc3Cl)[nH]c12 [Example-177, 7-[(2,6-Dichlorophenyl)amino]-N-(4-fluorophenyl)-2-methyl-8H-imidazo[4,5-e][1,3]benzoxazole-4-carboxamide] | 80.8% | 89.4% | < 50 nM
Cc1nc2c(o1)c(C(=O)Nc1ccc(C(F)(F)F)cc1)cc1nc(Nc3c(Cl)cccc3Cl)[nH]c12 [Example-178, 7-[(2,6-Dichlorophenyl)amino]-2-methyl-N-[4-(trifluoromethyl)phenyl]-8H-imidazo[4,5-e][1,3]benzoxazole-4-carboxamide] | 91.4% | 98.2% | < 50 nM
Cc1nc2c(o1)c(C(=O)Nc1ccc(Br)cc1)cc1nc(Nc3c(Cl)cccc3Cl)[nH]c12 [Example-179, N-(4-Bromophenyl)-7-[(2,6-dichlorophenyl)amino]-2-methyl-8H-imidazo[4,5-e][1,3]benzoxazole-4-carboxamide] | 93.7% | 97.4% | < 50 nM
Cc1nc2c(o1)c(C(=O)Nc1ccc(C(C)(C)C)cc1)cc1nc(Nc3c(Cl)cccc3Cl)[nH]c12 [Example-180, N-(4-tert-Butylphenyl)-7-[(2,6-dichlorophenyl)amino]-2-methyl-8H-imidazo[4,5-e][1,3]benzoxazole-4-carboxamide] | 98.7% | 97.3% | < 50 nM
CCCCCCNC(=O)c1cc2nc(Nc3c(Cl)cccc3Cl)[nH]c2c2nc(C)oc12 [Example-181, 7-[(2,6-Dichlorophenyl)amino]-N-hexyl-2-methyl-8H-imidazo[4,5-e][1,3]benzoxazole-4-carboxamide] | 89.5% | 93.9% | < 50 nM
Cc1nc2c(o1)c(C(=O)NCC1CCCCC1)cc1nc(Nc3c(Cl)cccc3Cl)[nH]c12 [Example-183, N-(Cyclohexylmethyl)-7-[(2,6-dichlorophenyl)amino]-2-methyl-8H-imidazo[4,5-e][1,3]benzoxazole-4-carboxamide] | 97.5% | 93.1% | < 50 nM
